What was measured:
[1] = system: Tyrosine-protein kinase ABL1 (Homo sapiens), P00519 [E255K]; settings: Compound concentration 1000.0 nM
[2] = molecular target: Activin receptor type-1 (Homo sapiens) (UniProt Q04771); settings: Compound concentration 1000.0 nM
[3] = molecular target: Activin receptor type-1-like (Homo sapiens) (UniProt P37023); settings: Compound concentration 1000.0 nM
[4] = molecular target: RAC-alpha serine/threonine-protein kinase (Homo sapiens) (UniProt P31749); settings: Compound concentration 1000.0 nM
[5] = molecular target: Casein kinase I isoform alpha-like (Homo sapiens) (UniProt Q8N752); settings: Compound concentration 1000.0 nM
[6] = molecular target: Casein kinase I isoform gamma-1 (Homo sapiens) (UniProt Q9HCP0); settings: Compound concentration 1000.0 nM
[7] = molecular target: Eukaryotic translation initiation factor 2-alpha kinase 1 (Homo sapiens) (UniProt Q9BQI3); settings: Compound concentration 1000.0 nM
[8] = molecular target: Ephrin type-A receptor 8 (Homo sapiens) (UniProt P29322); settings: Compound concentration 1000.0 nM
[9] = molecular target: Ephrin type-B receptor 1 (Homo sapiens) (UniProt P54762); settings: Compound concentration 1000.0 nM
[10] = molecular target: Mitogen-activated protein kinase 3 (Homo sapiens) (UniProt P27361); settings: Compound concentration 1000.0 nM
[11] = molecular target: Fibroblast growth factor receptor 3 (Homo sapiens) (UniProt P22607); settings: Compound concentration 1000.0 nM
[12] = system: Receptor-type tyrosine-protein kinase FLT3 (Homo sapiens), P36888 [D835H]; settings: Compound concentration 1000.0 nM
[13] = system: Receptor-type tyrosine-protein kinase FLT3 (Homo sapiens), P36888 [D835Y]; settings: Compound concentration 1000.0 nM
[14] = system: Receptor-type tyrosine-protein kinase FLT3 (Homo sapiens), P36888 [UNDEFINED MUTATION]; settings: Compound concentration 1000.0 nM
[15] = molecular target: Homeodomain-interacting protein kinase 4 (Homo sapiens) (UniProt Q8NE63); settings: Compound concentration 1000.0 nM
[16] = molecular target: Serine/threonine-protein kinase LATS1 (Homo sapiens) (UniProt O95835); settings: Compound concentration 1000.0 nM
[17] = molecular target: Serine/threonine-protein kinase 10 (Homo sapiens) (UniProt O94804); settings: Compound concentration 1000.0 nM
[18] = molecular target: Mitogen-activated protein kinase kinase kinase 13 (Homo sapiens) (UniProt O43283); settings: Compound concentration 1000.0 nM
[19] = molecular target: MAP kinase-interacting serine/threonine-protein kinase 2 (Homo sapiens) (UniProt Q9HBH9); settings: Compound concentration 1000.0 nM
[20] = molecular target: Myosin light chain kinase (Homo sapiens) (UniProt Q32MK0); settings: Compound concentration 1000.0 nM
[21] = molecular target: Myosin light chain kinase family member 4 (Homo sapiens) (UniProt Q86YV6); settings: Compound concentration 1000.0 nM
[22] = molecular target: Serine/threonine-protein kinase Nek6 (Homo sapiens) (UniProt Q9HC98); settings: Compound concentration 1000.0 nM
[23] = molecular target: Cyclin-dependent kinase 2 homolog (Plasmodium falciparum (isolate 3D7)) (UniProt P61075); settings: Compound concentration 1000.0 nM
[24] = molecular target: Phosphatidylinositol 3-kinase C2 domain-containing subunit gamma (Homo sapiens) (UniProt O75747); settings: Compound concentration 1000.0 nM
[25] = molecular target: Phosphatidylinositol 4,5-bisphosphate 3-kinase catalytic subunit alpha isoform (Homo sapiens) (UniProt P42336); settings: Compound concentration 1000.0 nM
[26] = system: Phosphatidylinositol 4,5-bisphosphate 3-kinase catalytic subunit alpha isoform (Homo sapiens), P42336 [C420R]; settings: Compound concentration 1000.0 nM
[27] = molecular target: Membrane-associated tyrosine- and threonine-specific cdc2-inhibitory kinase (Homo sapiens) (UniProt Q99640); settings: Compound concentration 1000.0 nM
[28] = molecular target: cGMP-dependent protein kinase 2 (Homo sapiens) (UniProt Q13237); settings: Compound concentration 1000.0 nM
[29] = system: Proto-oncogene tyrosine-protein kinase receptor Ret (Homo sapiens), P07949 [V804L]; settings: Compound concentration 1000.0 nM
[30] = molecular target: Ribosomal protein S6 kinase alpha-4 (Homo sapiens) (UniProt O75676); settings: Compound concentration 1000.0 nM
[31] = molecular target: Ribosomal protein S6 kinase alpha-6 (Homo sapiens) (UniProt Q9UK32); settings: Compound concentration 1000.0 nM
[32] = molecular target: Serine/threonine-protein kinase 16 (Homo sapiens) (UniProt O75716); settings: Compound concentration 1000.0 nM
[33] = molecular target: Serine/threonine-protein kinase TAO2 (Homo sapiens) (UniProt Q9UL54); settings: Compound concentration 1000.0 nM
[34] = molecular target: Non-receptor tyrosine-protein kinase TNK1 (Homo sapiens) (UniProt Q13470); settings: Compound concentration 1000.0 nM
[35] = molecular target: Serine/threonine-protein kinase WNK3 (Homo sapiens) (UniProt Q9BYP7); settings: Compound concentration 1000.0 nM
[36] = molecular target: T1, 5-hydroxytryptamine receptor 1A (Homo sapiens) (UniProt P08908); settings: Compound concentration 10.0 uM
T1 sequence (whole entry): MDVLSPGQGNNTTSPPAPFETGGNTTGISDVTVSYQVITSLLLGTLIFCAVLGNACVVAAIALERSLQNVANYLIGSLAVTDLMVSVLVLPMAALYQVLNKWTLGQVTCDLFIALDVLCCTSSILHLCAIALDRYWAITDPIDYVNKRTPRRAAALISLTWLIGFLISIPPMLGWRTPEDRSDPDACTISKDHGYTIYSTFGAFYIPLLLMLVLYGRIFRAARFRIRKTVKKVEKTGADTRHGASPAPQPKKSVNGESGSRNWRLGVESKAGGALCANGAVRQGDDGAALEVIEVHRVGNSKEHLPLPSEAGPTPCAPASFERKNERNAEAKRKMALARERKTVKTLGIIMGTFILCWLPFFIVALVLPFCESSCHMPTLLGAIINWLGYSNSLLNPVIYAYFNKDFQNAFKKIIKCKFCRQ

[37] = molecular target: GABA-A receptor; anion channel (Rattus norvegicus) (UniProt O09028+P15431+P18506+P18508+P19969+P20236+P23574+P23576+P28471+P28473+P30191+P62813+P63079+P63138+Q91ZM7+Q9ES14); settings: Compound concentration 10.0 uM

Chain of Ephrin type-B receptor 1 (Homo sapiens) (P54762 whole entry): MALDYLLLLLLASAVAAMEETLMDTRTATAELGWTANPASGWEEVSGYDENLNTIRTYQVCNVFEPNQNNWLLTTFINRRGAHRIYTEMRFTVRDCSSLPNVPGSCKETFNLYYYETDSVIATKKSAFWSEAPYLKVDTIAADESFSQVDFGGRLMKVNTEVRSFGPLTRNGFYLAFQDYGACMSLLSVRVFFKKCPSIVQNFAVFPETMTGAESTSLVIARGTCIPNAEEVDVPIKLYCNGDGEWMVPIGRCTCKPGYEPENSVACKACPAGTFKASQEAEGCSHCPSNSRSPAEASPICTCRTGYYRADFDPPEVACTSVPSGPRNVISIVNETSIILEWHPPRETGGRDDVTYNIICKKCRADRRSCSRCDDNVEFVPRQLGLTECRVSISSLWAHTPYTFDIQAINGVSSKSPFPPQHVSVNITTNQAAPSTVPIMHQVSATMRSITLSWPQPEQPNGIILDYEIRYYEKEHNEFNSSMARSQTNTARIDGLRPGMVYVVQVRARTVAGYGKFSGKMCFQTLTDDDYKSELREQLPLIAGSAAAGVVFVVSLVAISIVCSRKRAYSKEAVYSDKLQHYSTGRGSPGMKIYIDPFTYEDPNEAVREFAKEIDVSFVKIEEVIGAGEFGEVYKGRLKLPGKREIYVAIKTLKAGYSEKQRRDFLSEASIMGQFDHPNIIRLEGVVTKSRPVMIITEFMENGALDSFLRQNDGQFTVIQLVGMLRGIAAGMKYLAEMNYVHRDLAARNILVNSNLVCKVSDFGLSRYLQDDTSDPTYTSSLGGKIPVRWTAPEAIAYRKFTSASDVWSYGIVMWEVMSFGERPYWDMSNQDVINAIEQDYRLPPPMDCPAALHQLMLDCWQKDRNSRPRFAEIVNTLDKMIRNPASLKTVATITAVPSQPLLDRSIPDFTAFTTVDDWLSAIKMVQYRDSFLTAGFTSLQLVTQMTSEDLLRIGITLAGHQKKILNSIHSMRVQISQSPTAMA
Chain of Non-receptor tyrosine-protein kinase TNK1 (Homo sapiens) (Q13470 whole entry): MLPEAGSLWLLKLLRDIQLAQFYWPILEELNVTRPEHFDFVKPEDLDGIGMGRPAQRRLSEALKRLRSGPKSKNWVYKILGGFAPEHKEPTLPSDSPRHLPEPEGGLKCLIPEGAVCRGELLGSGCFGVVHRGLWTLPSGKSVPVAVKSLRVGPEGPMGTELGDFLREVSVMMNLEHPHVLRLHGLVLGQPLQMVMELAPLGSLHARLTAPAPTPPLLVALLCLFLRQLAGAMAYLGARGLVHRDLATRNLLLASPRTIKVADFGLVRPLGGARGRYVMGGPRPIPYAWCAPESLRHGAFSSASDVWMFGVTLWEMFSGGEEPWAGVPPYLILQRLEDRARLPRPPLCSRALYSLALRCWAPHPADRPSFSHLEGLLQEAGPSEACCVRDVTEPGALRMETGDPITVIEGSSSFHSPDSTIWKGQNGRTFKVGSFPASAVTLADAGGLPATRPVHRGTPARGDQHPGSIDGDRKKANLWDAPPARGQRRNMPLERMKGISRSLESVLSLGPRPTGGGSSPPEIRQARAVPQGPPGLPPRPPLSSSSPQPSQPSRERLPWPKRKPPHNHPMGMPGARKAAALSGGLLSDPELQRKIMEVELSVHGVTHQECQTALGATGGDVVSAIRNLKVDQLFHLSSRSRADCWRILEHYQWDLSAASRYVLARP
Chain of Activin receptor type-1 (Homo sapiens) (Q04771 whole entry): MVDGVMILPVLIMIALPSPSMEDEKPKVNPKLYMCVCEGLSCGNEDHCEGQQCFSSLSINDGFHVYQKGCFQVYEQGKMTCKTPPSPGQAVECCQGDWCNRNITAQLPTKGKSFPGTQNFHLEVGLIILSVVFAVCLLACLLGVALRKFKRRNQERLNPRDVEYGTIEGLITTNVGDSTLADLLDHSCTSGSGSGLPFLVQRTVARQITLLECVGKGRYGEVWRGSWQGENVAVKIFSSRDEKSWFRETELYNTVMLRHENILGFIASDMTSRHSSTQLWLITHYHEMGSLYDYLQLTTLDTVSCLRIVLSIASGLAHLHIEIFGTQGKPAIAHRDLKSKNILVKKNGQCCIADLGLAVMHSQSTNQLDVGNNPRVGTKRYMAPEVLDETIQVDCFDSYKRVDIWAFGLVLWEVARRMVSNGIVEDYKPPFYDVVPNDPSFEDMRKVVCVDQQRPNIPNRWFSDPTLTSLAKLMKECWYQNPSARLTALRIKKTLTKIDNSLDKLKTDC
Chain of Myosin light chain kinase family member 4 (Homo sapiens) (Q86YV6 whole entry): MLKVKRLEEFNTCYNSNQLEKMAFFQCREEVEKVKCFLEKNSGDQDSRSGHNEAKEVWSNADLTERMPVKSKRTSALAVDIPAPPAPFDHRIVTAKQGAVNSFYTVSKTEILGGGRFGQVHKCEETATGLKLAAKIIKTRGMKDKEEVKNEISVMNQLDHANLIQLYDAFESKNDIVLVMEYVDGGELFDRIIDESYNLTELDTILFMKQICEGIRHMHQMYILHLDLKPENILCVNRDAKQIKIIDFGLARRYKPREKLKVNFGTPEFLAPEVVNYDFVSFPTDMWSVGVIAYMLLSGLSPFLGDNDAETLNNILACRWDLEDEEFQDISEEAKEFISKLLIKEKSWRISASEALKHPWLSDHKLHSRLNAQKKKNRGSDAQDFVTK
Chain of Ephrin type-A receptor 8 (Homo sapiens) (P29322 whole entry): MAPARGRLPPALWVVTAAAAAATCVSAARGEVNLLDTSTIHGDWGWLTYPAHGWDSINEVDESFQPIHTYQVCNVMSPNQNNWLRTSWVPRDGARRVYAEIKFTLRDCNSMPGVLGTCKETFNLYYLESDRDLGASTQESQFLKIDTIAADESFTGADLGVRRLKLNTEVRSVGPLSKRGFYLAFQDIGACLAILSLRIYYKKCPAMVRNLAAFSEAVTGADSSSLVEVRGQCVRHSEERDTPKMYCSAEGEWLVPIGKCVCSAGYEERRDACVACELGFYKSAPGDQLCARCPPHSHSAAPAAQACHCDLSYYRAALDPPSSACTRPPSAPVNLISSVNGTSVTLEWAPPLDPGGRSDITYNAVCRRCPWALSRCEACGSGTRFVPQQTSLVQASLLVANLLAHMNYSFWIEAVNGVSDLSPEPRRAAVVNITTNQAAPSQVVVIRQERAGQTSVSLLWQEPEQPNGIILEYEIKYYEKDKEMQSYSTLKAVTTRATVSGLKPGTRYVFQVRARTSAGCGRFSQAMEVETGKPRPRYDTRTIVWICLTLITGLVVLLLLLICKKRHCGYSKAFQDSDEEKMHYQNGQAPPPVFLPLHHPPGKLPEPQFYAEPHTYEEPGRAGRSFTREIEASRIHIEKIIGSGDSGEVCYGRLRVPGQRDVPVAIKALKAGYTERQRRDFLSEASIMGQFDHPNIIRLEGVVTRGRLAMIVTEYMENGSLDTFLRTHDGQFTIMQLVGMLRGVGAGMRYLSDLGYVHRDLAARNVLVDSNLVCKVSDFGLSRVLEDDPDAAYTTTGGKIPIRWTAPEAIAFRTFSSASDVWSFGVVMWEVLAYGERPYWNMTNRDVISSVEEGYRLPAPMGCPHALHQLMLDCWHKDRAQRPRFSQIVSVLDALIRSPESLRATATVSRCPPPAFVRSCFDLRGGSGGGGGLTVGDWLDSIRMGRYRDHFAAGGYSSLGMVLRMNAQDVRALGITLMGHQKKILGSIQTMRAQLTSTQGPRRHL
Chain of Phosphatidylinositol 3-kinase C2 domain-containing subunit gamma (Homo sapiens) (O75747 whole entry, the tested form may be a part, canonical isoform): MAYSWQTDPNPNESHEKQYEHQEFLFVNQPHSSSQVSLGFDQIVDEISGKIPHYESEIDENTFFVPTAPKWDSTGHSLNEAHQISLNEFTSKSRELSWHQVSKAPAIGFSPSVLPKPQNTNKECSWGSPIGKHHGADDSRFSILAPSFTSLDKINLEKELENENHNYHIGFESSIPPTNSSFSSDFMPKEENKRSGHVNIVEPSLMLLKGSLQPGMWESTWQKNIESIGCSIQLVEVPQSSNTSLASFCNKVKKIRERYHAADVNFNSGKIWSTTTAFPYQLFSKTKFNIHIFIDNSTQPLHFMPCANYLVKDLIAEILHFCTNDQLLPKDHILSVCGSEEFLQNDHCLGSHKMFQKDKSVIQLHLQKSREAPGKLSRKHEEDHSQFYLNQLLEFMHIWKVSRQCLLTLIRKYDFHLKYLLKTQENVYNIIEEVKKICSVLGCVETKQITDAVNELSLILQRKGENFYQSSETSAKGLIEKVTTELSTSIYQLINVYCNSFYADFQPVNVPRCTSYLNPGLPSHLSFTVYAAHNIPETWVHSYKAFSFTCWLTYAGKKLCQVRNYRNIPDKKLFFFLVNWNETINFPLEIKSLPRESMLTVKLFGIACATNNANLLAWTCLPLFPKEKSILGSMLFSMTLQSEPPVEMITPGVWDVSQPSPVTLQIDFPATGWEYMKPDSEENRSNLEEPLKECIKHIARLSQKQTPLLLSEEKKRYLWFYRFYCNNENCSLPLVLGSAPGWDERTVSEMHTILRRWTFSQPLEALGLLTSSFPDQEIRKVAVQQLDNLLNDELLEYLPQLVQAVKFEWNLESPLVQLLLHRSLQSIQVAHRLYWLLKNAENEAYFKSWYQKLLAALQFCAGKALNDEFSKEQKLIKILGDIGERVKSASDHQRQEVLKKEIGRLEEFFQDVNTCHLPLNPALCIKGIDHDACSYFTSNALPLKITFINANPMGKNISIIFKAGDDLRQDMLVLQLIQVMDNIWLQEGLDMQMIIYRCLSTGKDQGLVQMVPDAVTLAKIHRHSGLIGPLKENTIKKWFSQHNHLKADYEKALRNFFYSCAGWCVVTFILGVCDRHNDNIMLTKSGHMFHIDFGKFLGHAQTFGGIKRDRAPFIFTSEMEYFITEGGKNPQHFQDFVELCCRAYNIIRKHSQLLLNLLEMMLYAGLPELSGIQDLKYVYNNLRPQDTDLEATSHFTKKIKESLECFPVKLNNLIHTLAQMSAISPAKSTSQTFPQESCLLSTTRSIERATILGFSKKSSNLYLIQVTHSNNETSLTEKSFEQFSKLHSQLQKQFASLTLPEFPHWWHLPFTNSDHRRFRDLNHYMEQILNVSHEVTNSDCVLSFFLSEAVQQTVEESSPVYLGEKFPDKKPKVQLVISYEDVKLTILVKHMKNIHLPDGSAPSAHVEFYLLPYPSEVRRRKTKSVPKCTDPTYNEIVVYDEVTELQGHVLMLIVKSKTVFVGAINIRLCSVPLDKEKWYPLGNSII

O=C(NC[C@@H]1[C@H]2CN(C(=O)OCc3cc(C(F)(F)F)cc(C(F)(F)F)c3)C[C@@H]12)c1ccc2[nH]nnc2c1 [BI 2545]
inactive: residual activity [1] 92% | residual activity [2] 100% | residual activity [3] 100% | residual activity [4] 100% | residual activity [5] 86% | residual activity [6] 97% | residual activity [7] 91% | residual activity [8] 100% | residual activity [9] 100% | residual activity [10] 100% | residual activity [11] 82% | residual activity [12] 100% | residual activity [13] 100% | residual activity [14] 85% | residual activity [15] 100% | residual activity [16] 96% | residual activity [17] 100% | residual activity [18] 86% | residual activity [19] 90% | residual activity [20] 98% | residual activity [21] 100% | residual activity [22] 100% | residual activity [23] 100% | residual activity [24] 100% | residual activity [25] 74% | residual activity [26] 95% | residual activity [27] 100% | residual activity [28] 82% | residual activity [29] 100% | residual activity [30] 100% | residual activity [31] 67% | residual activity [32] 100% | residual activity [33] 86% | residual activity [34] 94% | residual activity [35] 100% | inhibition [36] 0.91% | inhibition [37] 1.13%

Cc1nccc(COC(=O)N2C[C@@H]3[C@@H](CNC(=O)c4ccc5[nH]nnc5c4)[C@@H]3C2)n1 [BI 3017]
inactive: residual activity [1] 89% | residual activity [2] 95% | residual activity [3] 100% | residual activity [4] 100% | residual activity [5] 100% | residual activity [6] 100% | residual activity [7] 100% | residual activity [8] 100% | residual activity [9] 95% | residual activity [10] 92% | residual activity [11] 93% | residual activity [12] 97% | residual activity [13] 100% | residual activity [14] 100% | residual activity [15] 84% | residual activity [16] 89% | residual activity [17] 100% | residual activity [18] 65% | residual activity [19] 90% | residual activity [20] 97% | residual activity [21] 89% | residual activity [22] 100% | residual activity [23] 85% | residual activity [24] 99% | residual activity [25] 92% | residual activity [26] 97% | residual activity [27] 100% | residual activity [28] 100% | residual activity [29] 100% | residual activity [30] 100% | residual activity [31] 100% | residual activity [32] 80% | residual activity [33] 91% | residual activity [34] 66% | residual activity [35] 91% | inhibition [36] -7.66% | inhibition [37] 9.85%
